The values that follow come from patent US8017786B2, “Substituted β-phenyl-α-hydroxy-propanoic acid, synthesis method and use thereof” (Northwest University, priority 2006, dated 2011).

What all share (format): in vivo, rat
The test system of experiment [1] is rats with middle cerebral artery occlusion. Briefly: Cerebral microcirculatory blood flow in rats with middle cerebral artery occlusion. Conditions: 1 mL/kg ip. The protocol: 60 SD rats with a body weight of 220±20 g were randomly divided into normal control group, model control group, salvianic acid injection group (ip. 1 mL/kg), and group of bornyl β-(3,4-dihydroxylphenyl)-α-hydroxylpropionate ester at a small, middle and large dose respectively (ip. 5, 15, and 35 mg/kg). The rats of normal group and model group were administered with equal-volume of physiologic saline by ip. The rats were anesthetized by intraperitoneal injection of 1% pentobarbital sodium at an amount of 40 mg/kg, then placed at supine position, head fixed, and cut skin along cervical middle line. Trachea cannula, was inserted into the rats and they were allowed to spontaneous respire. Right common jugular vein and common carotid artery were isolated and a suture was introduced for later use. Animals were fixed on a rat stereotaxic apparatus, a cranial window with a size of 6×8 mm was opened at the right temple with a dental drill, after hemostasis, cerebral dura mater was cut open with scissors to expose cerebral pia mater. The window was covered and sealed with glass and dental cement, and the laser probe of a laser-doppler microcirculatory blood flow meter was fixed on the cranial window. Then the animals were fixed at lateral position, the right common carotid artery was lifted, ligated at the proximal part and carefully cut with scissors, a nylon suture having a diameter of about 0.3 mm was introduced into the artery. The distance between the artery cut and the paropia of the rats was marked before the suture was introduced. […] When the suture arrived at middle cerebral artery, an abrupt decrease of the microcirculatory blood flow would be observed. After the observation of a decrease in the microcirculatory blood flow, the suture was further penetrated by about 1 mm, and the distal end of the cut and the suture in the artery were ligated securely. Spare suture was cut-off. After the end of the test, it was checked whether the nylon suture blocked the initiation site of the middle cerebral artery, and the data of any animal whose artery was not blocked were cancelled. The animals of the control group were not treated. After the cranial window was prepared, the probe of J I2200 type laser-doppler microcirculatory blood flow meter was fixed at the cranial window, and the probe was maintained without displacement and rotation during the whole test. The microcirculatory blood flows before ligation and 5, 15, 30, 45 and 60 min after ligation were recorded, and the data of the animals in the drug-treatment groups were recorded at the same time points. The mean microcirculatory blood flow observed within 1 min at each time point was designated as the microcirculatory blood flow of the respective time point.

Experiment [2] concerns rats with cardiac ischemia reperfusion (I/R) injury. Briefly: Myocardial infarction areas caused by cardiac muscle I/R. Conditions: 1 mL/kg, 5 days; ischemia 30 min, reperfusion 30 min. The protocol: (§1) 52 SD rats having a body weight of 220±20 g were randomly divided into model control group, salviannic acid injection group (in 1 mL/kg), and group of bornyl β-(3,4-dihydroxylphenyl)-α-hydroxylpropionate ester at a small, middle and large dose (ip 5, 15, 35 mg/kg). The rats of the normal group and the model control group were ip administered with equal-volume of physiologic saline. The rats of all groups were administered for consecutive 5 days. When the rats were administered for the last time, they were simultaneously anesthetized with 1.5% pentobarbital sodium (ip 45 mg/kg), then a catheter was inserted into the right carotid artery, and connected via a transducer to an eight-channeled physiological recorder. Tracheal cannula was performed, and the ventilation rate was maintained at 60 times/min. The chest was opened, a 6/0 suture was used to form a loop at a site 1˜2 mm from the root of the anterior descending coronary artery, and a plastic pipe was introduced through the loop, then the loop was tightened up. The change of electrocardiogram was observed. An increase or decrease of ST indicated the success of ligation. The color of the myocardial tissue below the ligation suture became darker. 30 minutes later, the plastic pipe was pulled out to allow coronary artery blood flowing again and cause hyperemia of local tissue during reperfusion. For the groups subjected to ischemia for 30 min and reperfusion for 30 min, the myocardial infarction areas were recorded before the test, after ischemia for 1 min and 30 min, and after reperfusion for 30 min; for the groups subjected to ischemia for 30 min and reperfusion for 2 h, cardiac tissue samples were taken and fixed using 10% formalin, embedded with paraffin, serially sliced into sections with a thickness of 4 μm, and separately subjected to immunohistochemistry tests; the rats of the sham operation group were subjected only to the introduction of suture but their coronary arteries were not ligated.
After the rats were subjected to ischemia and reperfusion for 30 minutes, their anterior descending coronaries were ligated again, then they were sacrificed, their hearts were removed promptly, and 0.5 mL of 1% evans blue was injected into heart chambers via aorta to distinguish the ischemic regions and the non-ischemic regions. After the heart atrium and right ventricle were cut-off, the heart was refrigerated at −20° C. for 30 min, then placed in a tailor-made slice groove, and cut along the long axis to form 2 mm slices. The slices were immersed in 1% TTC phosphoric acid buffer solution (pH7.4), and incubated at 37° C. for 30 min to distinguish risky regions and necrotic regions. Then the slices were fixed with 10% formaldehyde for 24 h to enhance staining color for contrast photography. After the above treatment, the myocardial tissue was divided into: normal myocardia in blue, ischemic myocardia in light red, and necrotic myocardion in gray. A computer image analysis software was used to calculate the percentage of the area of the infarct myocardial region (nec) based on the area of the risky myocardial region (aar, i.e., ischemic myocardia, including ischemic infarct region and ischemic non-infarct region) (nec/aar), and the percentage of the area of the infarct myocardial region based on the whole area of the myocardia (nec/lv) to indicate the degree of infarct, as well as the percentage of the area of the risky myocardia based on the area of the left ventricle (aar/lv).

For another experiment, the system named is Bax. Description: Immunohistochemistry protein expression in I/R myocardial tissue: Bax. The following applies: 1 mL/kg, 5 days; ischemia 30 min, reperfusion 2 h. The protocol:
as §1
(§2) Standard immunohistochemistry ABC and SP methods were employed for staining. Bax: anti-rabbit polyclonal antibody (Santa CruzBio. Inc.) at a dilution of 1:200; […]: anti-rabbit polyclonal antibody (TBD Tianjin Biotechnological Center). At a dilution of […]; caspase-3: anti-rabbit polyclonal antibody (Normarkers Fromont, Calif.), at a dilution of 1:200; MMP-2: anti-murine monoclonal antibody (NormarkersFromont, Calif.) at a dilution of 1:200; PPARγ: anti-caprine polyclonal antibody (Santa Cruz Bio. Inc.), at a dilution of 1:500. The specific procedures were performed in accordance with the instructions of the ABC and SP kits, DAB was used for color development, and neutral resin was used for mounting. PBS was used instead of the first antibody as a negative control. Cells with positive expression of the test polypeptides were of brown-yellow color, with MMP-2 protein being present in acytoplasm, Bcl-2 expressed in nuclear membrane and cytoplasm, Bax mainly in cytoplasm and partially in nucleus, and caspase-3 mainly in nucleus and partially in cytoplasm. CMIAS image analysis system was used for random selection of fields of slices and automatic selection of sites for analysis, and statistic analysis was performed by using mean optical density values or integral optical density values of the obtained myocardial tissue slices.

The test system of another experiment is Bcl-2. Briefly: Immunohistochemistry protein expression in I/R myocardial tissue: Bcl-2. Conditions: 1 mL/kg, 5 days; ischemia 30 min, reperfusion 2 h. The protocol:
as §1, §2

The subject of a further experiment is caspase-3. Description: Immunohistochemistry protein expression in I/R myocardial tissue: caspase-3. The following applies: 1 mL/kg, 5 days; ischemia 30 min, reperfusion 2 h. The protocol:
as §1, §2

For another experiment, the system named is MMP-2. Briefly: Immunohistochemistry protein expression in I/R myocardial tissue: MMP-2. Conditions: 1 mL/kg, 5 days; ischemia 30 min, reperfusion 2 h. The protocol: as §1, §2
A further experiment has as its system PPARγ. Description: Immunohistochemistry protein expression in I/R myocardial tissue: PPARγ. The following applies: 1 mL/kg, 5 days; ischemia 30 min, reperfusion 2 h. The protocol:
as §1
Standard immunohistochemistry ABC and SP methods were employed for staining. Bax: anti-rabbit polyclonal antibody (Santa CruzBio. Inc.) at a dilution of 1:200; […]: anti-rabbit polyclonal antibody (TBD Tianjin Biotechnological Center). At a dilution of […]; caspase-3: anti-rabbit polyclonal antibody (Normarkers Fromont, Calif.), at a dilution of 1:200; MMP-2: anti-murine monoclonal antibody (NormarkersFromont, Calif.) at a dilution of 1:200; PPARγ: anti-caprine polyclonal antibody (Santa Cruz Bio. Inc.), at a dilution of 1:500. The specific procedures were performed in accordance with the instructions of the ABC and SP kits, DAB was used for color development, and neutral resin was used for mounting. PBS was used instead of the first antibody as a negative control. […]

As to `O=C(O)C(O)Cc1ccc(O)c(O)c1` (stereo not drawn) [Salvianic acid, β-(3,4-dihydroxyphenyl)-α-hydroxyl-propionic acid, reference compound], the Microcirculatory blood flow in experiment [1] (5 min after ligation) was 10.8 ± 3.6 mL; in experiment [1] (15 min after ligation) it was 20.1 ± 6.9 mL; in experiment [1] (30 min after ligation), 31.2 ± 9.5 mL; in experiment [1] (45 min after ligation), 33.0 ± 6.8 mL; in experiment [1] (60 min after ligation) it was 29.4 ± 6.9 mL. In addition, the aar/lv in experiment [2] was 50.21 ± 7.10 %. Also, the nec/aar in experiment [2] is on record as 49.87 ± 7.83 %. For the same molecule, the nec/lv in experiment [2] was 41.41 ± 5.49 %. Besides, the “Bax protein expression, OD value” in the experiment on Bax was 0.08 ± 0.02. Besides, the “Bcl-2 protein expression, OD value” in the experiment with Bcl-2 is 0.18 ± 0.04. Besides, the “Caspase-3 protein expression, OD value” in the experiment with caspase-3 came to 0.21 ± 0.12. In addition, the “MMP-2 protein expression, OD value” in the experiment with MMP-2 is given as 0.12 ± 0.05. In the experiment on PPARγ, the “PPARγ protein expression, OD value” is on record as 0.34 ± 0.08.
